# According to US20090312414A1, “Treatment Of Lower Urinary Tract Dysfunction With CB2-Receptor-Selective Agonists” (priority 2008, published 2009):
# What was measured:
# [1] = test system: isolated detrusor from rats with partial urethral obstruction; experiment: Nerve-induced contractions (electrical field stimulation) in bladder strips from PUO rats; format: ex vivo, rat; conditions: for Nerve-induced contractions: % of 60 mM K+ responses, preparations from treated PUO rats
# Experimental: The effect of chronic treatment with the compound of Formula I was studied in contractility studies with isolated bladder strips from rats with PUO after 2 weeks of treatment with the compound of Formula I.
# Bladder strips (2×2×6 mm) were dissected from PUO rat bladders. Silk ligatures were applied at both ends of the preparations which then were mounted on metal prongs in 5 ml aerated (95% O2 and 5% CO2) tissue baths (37° C.) containing Krebs solution. Mechanical activity was registered with Grass FT 03C force transducers connected to a Grass Polygraph model 7E. The preparations were stretched to a tension of approximately 10 mN and left to equilibrate for 45 minutes to attain a stable resting tonus. To establish the viability of the preparations and to determine a standard contractile level, preparations were exposed to a 60 mM K^+ Krebs solution. The effects of cumulative addition of carbachol, a non-selective muscarininc agonist (1 nM-0.1 mM), were studied in strip preparations from vehicle-treated and compound of Formula I-treated rats with PUO.
# Transmural activation of nerves was performed with two platinum electrodes, placed in parallel to the sides of the strips in the organ baths. The nerves of the preparations were stimulated by means of a Grass S 48 stimulator, delivering single square-wave pulses at supramaximum voltage with duration of 0.5 ms. The polarity was changed after each pulse by means of a polarity-changing unit. The train duration was 5 seconds and the train interval 120 seconds. Frequency-response relationships were investigated at supramaximum voltage in all preparations stimulated electrically. […] All contractile responses were expressed as a percentage of the contraction elicited by 60 mM K^+ Krebs solution. Simultaneous curve fit analysis was performed using GraphPad Prism v4.0 to determine statistical significance for increased efficacy of the compound of Formula I treatment upon muscle strips. Briefly, dose-response curves were tested comparing a variable slope model vs. a fixed slope (m=1) model.
# [2] = test system: conscious rats with partial urethral obstruction; experiment: Cystometry in conscious rats with partial urethral obstruction (PUO); format: in vivo, rat; conditions: 3 mg/kg IP daily for 2 weeks
# Text: The effect of chronic treatment with the compound of Formula I on bladder function was studied by cystometry in conscious rats with partial urethral obstruction (“PUO”) after 2 weeks of treatment with the compound of Formula I. Protocols for animals and bladder catheter implantation were as in Example 4 above.
# The bladder and urethra was exposed via a mid-line incision of the lower abdom. A 19 gauge needle (0.9 mm OD) was placed on the surface of the urethra, and a 3-0 black mono nylon suture was firmly tied over the urethra and the ligation was left in place for the duration of the study. The needle was then removed and the diameter and position of the ligature was then inspected to ensure that a partial urethral obstruction was obtained. The abdominal cavity was then closed in layers with single cross-sutures (5-0 black polyfilament nylon suture). Animals were then housed in individual cages for two weeks before cystometry were performed.
# The appropriate solution of the compound of Formula I was prepared on the day of the experiment using PBS as the vehicle. A stock solution of 10 mg/ml in PBS was used and the animals were administered daily, weight-controlled doses of 3 mg/kg compound of Formula I or vehicle by intraperitoneal (“IP”) injection over the 2 week treatment period, starting on the day of PUO surgery.
# Cystometry was performed without anesthesia three days after the implantation of bladder catheters in rats with PUO, and after two weeks of daily treatment with the compound of Formula I. The conscious rats were placed in metabolic cages without restraint and the bladder catheters were connected via a T-tube to a pressure transducer (P23 DC; Statham Instruments Inc., Oxnard, Calif.) and a microinjection pump (CMA 100; Carnegie Medicine AB, Solna, Sweden). Micturition volumes were recorded with a fluid collector connected to a force displacement transducer (FT 03 D, Grass Instrument Co., Quincy, Mass.). Room-temperature saline was infused into the bladder continuously at a rate of 10 ml/h. Bladder size increases several-fold in rats subjected to PUO. Therefore, an infusion rate of 20 ml/h was used during cystometry in these animals. Pressures and micturition volumes were recorded continuously with Acq Knowledge 3.8.1 software and a MP100 data acquisition system (Biopac Syst. Inc. Santa Barbara, Calif.) connected to a Grass polygraph (Model 7E, Grass Instrument Co). At the beginning of cystometry, the bladder was emptied via the bladder catheter.
# The following urodynamic parameters were investigated: micturition pressure (“MP;” maximum bladder pressure during micturition), threshold pressure (“ThP”; bladder pressure at start of detrusor contraction), flow pressure (“FP”; bladder pressure when urethra opens), MI (time between two micturitions), micturition volume (“MV”; volume of the expelled urine), and RV (volume left in bladder after a micturition). At least a 30-minute period with stable and reproducible micturitions was recorded before drug administration and used as baseline value, to be compared with a corresponding stable 30-minute period after drug administration. For multiple comparisons, a one-way analysis of variance for repeated measures (Holm-Sidak) was used. Pairwise and non-pairwise comparisons were made by Student's t-test. All statistical calculations are based on the number of individual animals, and significant differences are accepted when p<0.05.
# As used herein, the term “chronic” means that the animals were dosed once/day for 14 days, prior to taking the cystometry measurements. For specific investigation and analysis of NVCs, the PUO should beneficially be removed approximately 2-3 days prior to the urodynamic investigation. […]
# CB2 receptor = CB2 receptor (Homo sapiens, UniProt P34972); experiment: CB2 binding assay (displacement of radiolabeled agonist)
# Sequence of CB2 receptor (P34972 whole entry): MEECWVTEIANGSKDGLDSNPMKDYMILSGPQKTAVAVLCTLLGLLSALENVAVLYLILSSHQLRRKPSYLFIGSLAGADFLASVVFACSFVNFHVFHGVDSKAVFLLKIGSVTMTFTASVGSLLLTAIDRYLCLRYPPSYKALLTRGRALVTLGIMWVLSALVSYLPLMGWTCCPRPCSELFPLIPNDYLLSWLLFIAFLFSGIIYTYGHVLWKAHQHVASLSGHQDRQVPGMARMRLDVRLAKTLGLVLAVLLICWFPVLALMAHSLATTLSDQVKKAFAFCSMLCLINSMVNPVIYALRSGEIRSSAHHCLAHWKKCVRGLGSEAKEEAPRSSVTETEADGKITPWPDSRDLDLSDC
compound,measurement,setting,value
CCCCCCC(C)(C)c1cc(O)c([C@H]2CC(=O)[C@H]3C[C@@H]2C3(C)C)c(OC(=O)/C=C/C(=O)O)c1 [Formula I],Nerve-induced contractions vs untreated PUO rats,"[1]; 1 Hz, bladders from PUO rats treated for 2 weeks",significantly larger contractions
same,Nerve-induced contractions,"[1]; 8 Hz, p<0.01",83±14%
same,Nerve-induced contractions,"[1]; 16 Hz, p<0.005",120±16%
same,Nerve-induced contractions,"[1]; 32 Hz, p<0.006",146±16%
same,Incidence of NVC,[2]; PUO rats,20%
same,Mean bladder weight,"[2]; PUO rats, n=10, not significant",0.88 ± 0.13 g
same,Micturition pressure (MP),"[2]; PUO rats, ns",116.0±17.4 cmH2O
same,Mean flow pressure (FP),"[2]; PUO rats, p<0.002",87.4±8.7 cmH2O
same,Mean threshold pressure (ThP),"[2]; PUO rats, p<0.002",39.4±4.9 cmH2O
same,Micturition interval (MI),"[2]; PUO rats, p<0.01",84 ± 10 s
same,Micturition volume (MV),"[2]; PUO rats, p<0.02",0.43 ± 0.07 mL
same,Residual volume (RV),"[2]; PUO rats, p<0.02",0.09 ± 0.05 mL
same,Micturition frequency,"[2]; PUO rats, p<0.03",53±11 micturitions per hour
same,PUO rats exhibiting non-voiding contractions (NVCs),[2]; p<0.04,2 out of 10
same,CB2/CB1 affinity ratio,CB2 receptor,34
same,IC50,CB2 receptor; displaces 50% of a radiolabeled agonist,19.4 nM
